From ChEMBL document CHEMBL1141819, “Antimycobacterial triterpenes from Melia volkensii” (1999) come the findings set out here.

The subject of this test is Mycobacterium tuberculosis. The test is described as follows: Antimycobacterial activity against Mycobacterium tuberculosis H37Rv ATCC 27294 by radiorespirometric bioassay. It is filed as functional.

≈ marks a conversion by molar mass, not a printed value.

`CC(=O)[C@H](CCC=C(C)C)[C@@H]1[C@@H](O)C[C@]2(C)C3=CC[C@H]4C(C)(C)C(=O)CC[C@]4(C)[C@H]3CC[C@@]12C` [KULONATE] displayed an MIC of 16 µg/mL (≈ 34.1 µM). The same measure for `CC(C)=CCC[C@H]1C(=O)O[C@H]2C[C@]3(C)C4=C[C@@H](O)[C@H]5C(C)(C)C(=O)CC[C@]5(C)[C@H]4CC[C@@]3(C)[C@@H]21`: 4 µg/mL (≈ 8.53 µM).

Turning to `CC(C)=CCC[C@H]1C(=O)O[C@H]2C[C@]3(C)C4=CC[C@H]5C(C)(C)C(=O)CC[C@]5(C)[C@H]4C[C@@H](O)[C@@]3(C)[C@@H]21`, the lowest concentration to inhibit growth (MIC) was 16 µg/mL (≈ 34.1 µM).

Usually MIC stands for the smallest concentration in the dilution series that meets the test's criterion for growth inhibition.
